biological target: T1, GDP-loaded K-Ras (1-169) G12D, C51S, C80L, C118S (Homo sapiens, UniProt P01116, C118S/C51S/C80L/G12D); assay: K-Ras G12D(GDP) cross-linking assay (mass spectrometry, percent covalent modification); assay type: binding; details: at 24 hours, room temperature
T1 construct: GDP-loaded K-Ras (1-169) G12D, C51S, C80L, C118S
Description: Protocol: K-Ras G12D(GDP) Cross-Linking Assay
Note: While the Following Protocol Outlines the Procedure for K-Ras G12D(GDP), a Person of Skill in the Art May Substitute Other Ras Proteins, and May Also Substitute a Non-Hydrolyzable GTP Analog for GDP to Study GTP Bound Ras Protein.
GDP-loaded K-Ras (1-169) G12D, C51S, C80L, C118S and GDP-loaded K-Ras (1-169) C51S, C80L, C118S were adjusted to 50 μM in K-Ras assay buffer (12.5 mM HEPES, 75 mM NaCl and 1 mM MgCl2 at pH 7.4). A 5 μL aliquot of each protein solution was added to each well of a 96-well microplate containing 40 μL of assay buffer. Initial compound stocks were prepared in DMSO at 100 times their final assay concentration. Compounds were then diluted 10-fold into K-Ras assay buffer to 10 times their final concentration. A 5 μL aliquot of each diluted compound solution was added to each protein solution in the 96-well microplate to initiate the reaction, which then proceeded at room temperature. Typical final compound concentrations were 2, 10, and 25 μM. At each time point, the reactions were analyzed immediately or quenched with 5 μL of a 5% formic acid solution and kept at 4° C. until analysis. Typical assay endpoints were 1, 6 and 24 h.
Data collection took place on an Agilent 6230 TOF Mass Spectrometer. Complete reactions were injected onto a C4 reverse-phase column to separate protein from buffer components prior to entering the mass spectrometer. The proteins were eluted from the column by increasing acetonitrile fraction in the mobile phase and fed directly into the mass analyzer. Initial analysis of raw data took place on Agilent MassHunter BioConfirm software and consisted of deconvolution of multiple protein charge states with the maximum entropy algorithm, with a mass step of 1 Da. The heights of all deconvoluted protein masses were exported for further data analysis. The percent modification of each protein was then determined by calculating the peak height of the covalently modified K-Ras species as a percentage of the sum total of K-Ras protein peak height.

Row | Structure (SMILES) | cross-linking to K-Ras G12D
1 | Oc1cc(-c2ncc3c(N4C[C@H]5CC[C@@H](C4)N5C[C@H]4CN4)nc(OC[C@@]45CCCN4C[C@H](F)C5)nc3c2F)c2c(F)cccc2c1 [Compound B3, 4-(4-((1R,5S)-8-(((R)-aziridin-2-yl)methyl)-3,8-diazabicyclo[3.2.1]octan-3-yl)-8-fluoro-2-(((2R,7aS)-2-fluorotetrahydro-1H-pyrrolizin-7a(5H)-yl)methoxy)pyrido[4,3-d]pyrimidin-7-yl)-5-fluoronaphthalen-2-ol] | greater than 0%

same assay, conditions: at times up to 24 hours, room temperature

Row | Structure (SMILES) | cross-linking to K-Ras G12D
2 | O=C([C@@H]1CN1)N1C=C(c2ncc3c(N4C[C@H]5CC[C@@H](C4)N5)nc(OC[C@@]45CCCN4C[C@H](F)C5)nc3c2F)c2c(F)cccc2C1 [Compound B24, (4-(4-((1R,5S)-3,8-diazabicyclo[3.2.1]octan-3-yl)-8-fluoro-2-(((2R,7aS)-2-fluorotetrahydro-1H-pyrrolizin-7a(5H)-yl)methoxy)pyrido[4,3-d]pyrimidin-7-yl)-5-fluoroisoquinolin-2(1H)-yl)((S)-aziridin-2-yl)methanone] | no cross-linking
3 | O=C([C@@H]1CN1)N1[C@@H]2CC[C@H]1CN(c1nc(OC[C@@]34CCCN3C[C@H](F)C4)nc3c(F)c(-c4cc(O)cc5cccc(F)c45)ncc13)C2 [Compound B2, ((S)-aziridin-2-yl)((1R,5S)-3-(8-fluoro-7-(8-fluoro-3-hydroxynaphthalen-1-yl)-2-(((2R,7aS)-2-fluorotetrahydro-1H-pyrrolizin-7a(5H)-yl)methoxy)pyrido[4,3-d]pyrimidin-4-yl)-3,8-diazabicyclo[3.2.1]octan-8-yl)methanone] | no cross-linking
4 | Oc1cc(-c2ncc3c(N4C[C@H]5CC[C@@H](C4)N5C[C@@H]4CN4)nc(OC[C@@]45CCCN4C[C@H](F)C5)nc3c2F)c2c(F)cccc2c1 [Compound B4, 4-(4-((1R,5S)-8-(((S)-aziridin-2-yl)methyl)-3,8-diazabicyclo[3.2.1]octan-3-yl)-8-fluoro-2-(((2R,7aS)-2-fluorotetrahydro-1H-pyrrolizin-7a(5H)-yl)methoxy)pyrido[4,3-d]pyrimidin-7-yl)-5-fluoronaphthalen-2-ol] | no cross-linking
5 | O=C([C@H]1CN1)N1C=C(c2ncc3c(N4C[C@H]5CC[C@@H](C4)N5)nc(OC[C@@]45CCCN4C[C@H](F)C5)nc3c2F)c2c(F)cccc2C1 [Compound B23, (4-(4-((1R,5S)-3,8-diazabicyclo[3.2.1]octan-3-yl)-8-fluoro-2-(((2R,7aS)-2-fluorotetrahydro-1H-pyrrolizin-7a(5H)-yl)methoxy)pyrido[4,3-d]pyrimidin-7-yl)-5-fluoroisoquinolin-2(1H)-yl)((R)-aziridin-2-yl)methanone] | no cross-linking
6 | O=C([C@H]1CN1)N1[C@@H]2CC[C@H]1CN(c1nc(OC[C@@]34CCCN3C[C@H](F)C4)nc3c(F)c(-c4cc(O)cc5cccc(F)c45)ncc13)C2 [Compound B1, ((R)-aziridin-2-yl)((1R,5S)-3-(8-fluoro-7-(8-fluoro-3-hydroxynaphthalen-1-yl)-2-(((2R,7aS)-2-fluorotetrahydro-1H-pyrrolizin-7a(5H)-yl)methoxy)pyrido[4,3-d]pyrimidin-4-yl)-3,8-diazabicyclo[3.2.1]octan-8-yl)methanone] | no cross-linking

Source: patent US20240262847A1, “COVALENT RAS INHIBITORS AND USES THEREOF” (Revolution Medicines, Inc., priority 2021, published 2024)
